Measured values as given in patent US10716306B2, “N-alkylsulfonyl indoline compound, agricultural and horticultural insecticide comprising the compound, and method for using the insecticide” (Nihon Nohyaku Co., Ltd., priority 2016, dated 2020).

Key:
[1] = test system: Laodelphax striatellus; assay: Insecticidal test on Laodelphax striatellus; assay type: in vivo; settings: 192 h, rice seedlings dipped 30 seconds, ten 3rd-instar larvae, 8 days after the inoculation, read-out: insecticidal efficacy (corrected mortality rate)
Description: Insecticidal Test on Laodelphax striatellus
The condensed heterocyclic compounds represented by the general formula (1) of the present invention or salts thereof were separately dispersed in water and diluted to 500 ppm. Rice plant seedlings (variety: Nihonbare) were dipped in the agrochemical dispersions for 30 seconds. After air-dried, each seedling was put into a separate glass test tube and inoculated with ten 3rd-instar larvae of Laodelphax striatellus, and then the glass test tubes were capped with cotton plugs. At 8 days after the inoculation, the numbers of surviving larvae and dead larvae were counted, the corrected mortality rate was calculated according to the formula shown below, and the insecticidal efficacy was evaluated according to the criteria shown below. Corrected mortality rate (%)=100×(Survival rate in a non-treatment plot−Survival rate in a treatment plot)/Survival rate in a non-treatment plot [Math. 2] Corrected Mortality Rate A: the corrected mortality rate is 100%. B: the corrected mortality rate is 90 to 99%. C: the corrected mortality rate is 80 to 89%. D: the corrected mortality rate is 50 to 79%.

[2] = test system: Plutella xylostella; assay: Insecticidal test on Plutella xylostella; assay type: in vivo; settings: 144 h, Chinese cabbage seedlings with laid eggs dipped about 30 seconds, 25° C., 6 days after the dip treatment, read-out: insecticidal efficacy (corrected mortality rate)
Description: Insecticidal Test on Plutella xylostella
Adults of Plutella xylostella were released onto Chinese cabbage seedlings and allowed to lay eggs thereon. At 2 days after the release of the adults, the Chinese cabbage seedlings with laid eggs were dipped for about 30 seconds in agrochemical dispersions diluted to 500 ppm, each of which contained a different kind of indoline compound represented by the general formula (1) of the present invention as an active ingredient. After air-dried, the seedlings were kept in a thermostatic chamber at 25° C. At 6 days after the dip treatment, the number of hatched larvae per plot was counted, the mortality rate was calculated according to the formula shown below, and the insecticidal efficacy was evaluated according to the criteria of Test Example 2. This test was conducted in triplicate using 10 adults of Plutella xylostella per plot. Corrected mortality rate (%)=100×(Number of hatched larvae in a non-treatment plot−Number of hatched larvae in a treatment plot)/Number of hatched larvae in a non-treatment plot [Math. 3]

Row | Compound | mortality at 500 ppm [1] | mortality at 500 ppm [2]
1 | CCS(=O)(=O)N1c2ccccc2CC1c1nc2cc(C(F)(F)F)cnc2n1C (centres unmarked) [Compound 2-1, 2-(1-ethylsulfonyl-indolin-2-yl)-3-methyl-6-trifluoromethyl-3H-imidazo[4,5-b]pyridine] | 100% | 100%
2 | CCS(=O)(=O)N1c2ccccc2CC1c1nc2cc(SC(F)(F)F)ccc2o1 (centres unmarked) [Compound 3-1, 2-(1-ethylsulfonyl-indolin-2-yl)-5-trifluoromethyl-thiobenzo[d]oxazole] | 100% | 100%
3 | CCS(=O)(=O)N1c2ccc(I)cc2CC1c1nc2cc(SC(F)(F)F)ccc2o1 (centres unmarked) [Compound 3-5, 2-(1-ethylsulfonyl-5-iodoindolin-2-yl)-5-trifluoromethyl-thiobenzo[d]oxazole] | 100% | 100%
4 | CCS(=O)(=O)N1c2ccc(C3CC3)cc2CC1c1nc2cc(SC(F)(F)F)ccc2o1 (centres unmarked) [Compound 3-19, 2-(1-ethylsulfonyl-5-cyclopropyl-indolin-2-yl)-5-trifluoromethyl-thiobenzo[d]oxazole] | 100% | 100%
